Data published in patent US10647671B2, “Promysalin analogues and methods of use thereof” (Temple University—Of The Commonwealth System of Higher …, priority 2016, dated 2020).
Like-named read-outs stand apart in the source and are kept apart here.

Tests used:
[1] = system: P. aeruginosa strains PAO1 and PA14; test: Inhibitory activity against P. aeruginosa, strain not separated in text; type: cell-based, Pseudomonas aeruginosa; conditions: for inhibitory activity against P. aeruginosa, in words (SAR): compared with promysalin; for IC50: Pseudomonas aeruginosa, PAO1 and PA14, read-out: IC50 / inactive up to concentration
Description: (§1) P. aeruginosa PA01, and PA14 were gifts from Prof. George O'Toole (Dartmouth Medical School). Bacterial cultures were grown from freezer stocks overnight (16-24 hr) with shaking at 37° C. in Tryptic Soy Broth (TSB) media (10 mL). Growth curves were obtained for PA01 and PA14 to determine the OD of each strain in exponential growth; OD readings at 595 nm were taken every 10 minutes for 6 hours in a plate reader at 37° C. with shaking and repeated six times. (see FIGS. 6A and 6B)
(§2) Compounds were serially diluted in sterile DI water from a stock solution (1 mM in 10% DMSO/90% H2O) to yield twenty-four test concentrations. Overnight cultures were diluted 1:100 in 5 mL fresh media and grown with shaking at 37° C. to an OD of 0.32 (see growth curves). Bacteria were diluted to a concentration of 0.004 using the following equation: (x μL O/N)(OD reading)=(0.004)(volume needed) and 100 μL was inoculated into each well of a flat-bottom 96-well plate (Corning 3370) containing 100 μL of compound solution. Plates were incubated statically at 37° C. for 24 hours, upon which time the OD at 595 nm was measured using a plate reader. IC50 values were calculated by fitting the OD readings vs. concentration with a 4 parameter logistic model. Controls were prepared by serially diluting a 10% DMSO/90% H2O the same as the compound stock solution. Compounds were tested in triplicate from separate O/N cultures and results averaged.
With a library of sixteen analogs in hand, all of the compounds were evaluated for inhibitory activity against P. aeruginosa strains PAO1 and PA14. […] The inhibition data supported our initial hypothesis that the conformation of promysalin is exquisitely linked to its inhibition of PA. Of our modifications to the proline structure, fluorination (9)—being the smallest steric perturbation, was the only compound with equipotency to that of promysalin.

P. aeruginosa PA01 = test: IC50 assay (OD595, 24 h) against PA01; type: cell-based; conditions: Pseudomonas aeruginosa
Description: P. aeruginosa PA01, and PA14 were gifts from Prof. George O'Toole (Dartmouth Medical School). Bacterial cultures were grown from freezer stocks overnight (16-24 hr) with shaking at 37° C. in Tryptic Soy Broth (TSB) media (10 mL). Growth curves were obtained for PA01 and PA14 to determine the OD of each strain in exponential growth; OD readings at 595 nm were taken every 10 minutes for 6 hours in a plate reader at 37° C. with shaking and repeated six times. (see FIGS. 6A and 6B) Compounds were serially diluted in sterile DI water from a stock solution (1 mM in 10% DMSO/90% H2O) to yield twenty-four test concentrations. Overnight cultures were diluted 1:100 in 5 mL fresh media and grown with shaking at 37° C. to an OD of 0.32 (see growth curves). Bacteria were diluted to a concentration of 0.004 using the following equation: (x μL O/N)(OD reading)=(0.004)(volume needed) and 100 μL was inoculated into each well of a flat-bottom 96-well plate (Corning 3370) containing 100 μL of compound solution. Plates were incubated statically at 37° C. for 24 hours, upon which time the OD at 595 nm was measured using a plate reader. IC50 values were calculated by fitting the OD readings vs. concentration with a 4 parameter logistic model. Controls were prepared by serially diluting a 10% DMSO/90% H2O the same as the compound stock solution. Compounds were tested in triplicate from separate O/N cultures and results averaged.

P. aeruginosa PA14 = test: IC50 assay (OD595, 24 h) against PA14; type: cell-based, Pseudomonas aeruginosa; conditions: for IC50: Pseudomonas aeruginosa
Description: as §1, §2
Compounds were serially diluted in sterile DI water from a stock solution (10% DMSO/H2O) yielding 24 test concentrations. Bacteria were diluted to a final concentration of 0.004 from regrown overnight culture according to the following equation: (xμL bacterial culture)(OD reading)=(0.004)(total volume needed) and 100 μL was inoculated into each well of a flat-bottom 96-well plate (Corning 3370) containing 100 μL of compound solution. Plates were incubated statically at 37° C. for 24 hours upon which time OD at 595 nm was measured using a plate reader (Spectra Max 190). IC50 values were calculated using OD values and concentrations with a 4-parameter logistic model. Control experiments used a 10% DMSO/H2O stock serially diluted to the same 24 concentrations. Compounds were tested in triplicate from three independent overnight cultures.

[2] = average of EXPT 1-3, read-out: IC50 PA01 AVG
[3] = averages of three independent experiments, read-out: IC50 PA01
[4] = single trial 1, read-out: IC50 PA01 EXPT 1
[5] = single trial 2, read-out: IC50 PA01 EXPT 2
[6] = single trial 3, read-out: IC50 PA01 EXPT 3
[7] = average of EXPT 1-3, read-out: IC50 PA14 AVG
[8] = averages of three independent experiments, read-out: IC50 PA14
[9] = single trial 1, read-out: IC50 PA14 EXPT 1
[10] = single trial 2, read-out: IC50 PA14 EXPT 2
[11] = single trial 3, read-out: IC50 PA14 EXPT 3

With CCCCCC[C@H](CCCCC[C@@H](O)C(N)=O)OC(=O)[C@@H]1CC=CN1C(=O)c1ccccc1[N+](=O)[O-] [compound 17, (7R,13R)-14-amino-13-hydroxy-14-oxotetradecan-7-yl (S)-1-(2-nitrobenzoyl)-2,3-dihydro-1H-pyrrole-2-carboxylate] the “inhibitory activity against P. aeruginosa, in words (SAR)” value [1] was “largely unforgiving”.

In the case of COC(=O)[C@@H]1CC=CN1C(=O)c1ccccc1O [compound 5, Methyl (2S)-1-(2-hydroxybenzoyl)-2,3-dihydro-1H-pyrrole-2-carboxylate], the IC50 [1] is reported as greater than 250 µM.

CCCCCC[C@H](CCCCCCC(N)=O)OC(=O)[C@@H]1CC=CN1C(=O)c1ccccc1O [compound 18, (R)-14-amino-14-oxotetradecan-7-yl (S)-1-(2-hydroxybenzoyl)-2,3-dihydro-1H-pyrrole-2-carboxylate] showed an IC50 (P. aeruginosa PA01; [2]) of 5.85 µM, an IC50 (P. aeruginosa PA01; [3]) of 5.8 µM and an IC50 (P. aeruginosa PA01; [4]) of 4.78 µM. For the same compound, the IC50 (P. aeruginosa PA01; [5]) was 5.64 µM, the IC50 (P. aeruginosa PA01; [6]) was 7.12 µM and the IC50 (P. aeruginosa PA14; [7]) was 0.035 µM. For the same compound, the IC50 (P. aeruginosa PA14; [8]) was 0.035 µM, the IC50 (P. aeruginosa PA14; [9]) was 0.02 µM and the IC50 (P. aeruginosa PA14; [10]) was 0.09 µM. For the same compound, the “inhibitory activity against P. aeruginosa, in words (SAR)” value [1] was “fully retained”.

With CCCCCC[C@H](CCCCC[C@@H](O)C(N)=O)OC(=O)[C@@H]1C[C@@H](O)CN1C(=O)c1ccccc1O [compound 8, (1R,7R)-1-carbamoyl-1-hydroxytridecan-7-yl (2S,4R)-4-hydroxy-1-(2-hydroxybenzoyl)pyrrolidine-2-carboxylate] the “inhibitory activity against P. aeruginosa, in words (SAR)” value [1] was “inactive”.

For CCCCCC[C@H](CCCCC[C@@H](O)C(N)=O)OC(=O)[C@@H]1CC=CN1C(=O)c1ccccc1 [compound 14, (1R,7R)-1-carbamoyl-1-hydroxytridecan-7-yl (2S)-1-benzoyl-2,3-dihydro-1H-pyrrole-2-carboxylate], the “inhibitory activity against P. aeruginosa, in words (SAR)” value [1] was “largely unforgiving”.

In the case of C#CCCC1(CCNC(=O)[C@H](O)CCCCC[C@@H](CCCCCC)OC(=O)[C@@H]2CC=CN2C(=O)c2ccccc2)N=N1 [(−)-S12, (7R,13R)-14-((2-(3-(but-3-yn-1-yl)-3H-diazirin-3-yl)ethyl)amino)-13-hydroxy-14-oxotetradecan-7-yl (S)-1-benzoyl-2,3-dihydro-1H-pyrrole-2-carboxylate], the “inhibitory activity against P. aeruginosa, in words (SAR)” value [1] is reported as “inactive”.

CCCCCC[C@H](CCCCC[C@@H](O)C(N)=O)OC(=O)[C@@H]1CCCCN1C(=O)c1ccccc1O [compound 7, (1R,7R)-1-carbamoyl-1-hydroxytridecan-7-yl (2S)-1-(2-hydroxybenzoyl)piperidine-2-carboxylate] was tested, and the “inhibitory activity against P. aeruginosa, in words (SAR)” value [1] was “inactive”.

CCCCCC[C@H](CCCCC[C@@H](O)C(N)=O)OC(=O)[C@@H]1CC=CN1C(=O)c1cc(OC)c(OC)c(OC)c1 [compound 16, (1R,7R)-1-carbamoyl-1-hydroxytridecan-7-yl (2S)-1-(3,4,5-trimethoxybenzoyl)-2,3-dihydro-1H-pyrrole-2-carboxylate] was tested, and the “inhibitory activity against P. aeruginosa, in words (SAR)” value [1] was “not tolerated”.

CCCCCC[C@H](CCCCC[C@@H](O)C(N)=O)OC(=O)[C@@H]1CC(F)=CN1C(=O)c1ccccc1O [compound 9, (7R,13R)-14-amino-13-hydroxy-14-oxotetradecan-7-yl (S)-4-fluoro-1-(2-hydroxybenzoyl)-2,3-dihydro-1H-pyrrole-2-carboxylate] gave an IC50 (P. aeruginosa PA01; [2]) of 7.7 µM, an IC50 (P. aeruginosa PA01; [3]) of 7.7 µM and an IC50 (P. aeruginosa PA01; [4]) of 8.11 µM. It also gave an IC50 (P. aeruginosa PA01; [5]) of 8.57 µM, an IC50 (P. aeruginosa PA01; [6]) of 6.41 µM and an IC50 (P. aeruginosa PA14; [7]) of 0.019 µM. The IC50 (P. aeruginosa PA14; [8]) was 0.019 µM, the IC50 (P. aeruginosa PA14; [9]) was 0.04 µM and the IC50 (P. aeruginosa PA14; [10]) was 0.01 µM. For the same compound, the IC50 (P. aeruginosa PA14; [11]) was 0.01 µM and the “inhibitory activity against P. aeruginosa, in words (SAR)” value [1] was “equipotency”.

CCCCCC[C@H](CCCCC[C@@H](O)C(N)=O)OC(=O)[C@@H]1CC=CN1C(=O)c1ccccc1OC [compound 11, (1R,7R)-1-carbamoyl-1-hydroxytridecan-7-yl (2S)-1-(2-methoxybenzoyl)-2,3-dihydro-1H-pyrrole-2-carboxylate] showed an IC50 (P. aeruginosa PA01; [2]) of 56.7 µM, an IC50 (P. aeruginosa PA01; [3]) of 57 µM and an IC50 (P. aeruginosa PA01; [4]) of 59.3 µM. For the same compound, the IC50 (P. aeruginosa PA01; [5]) was 55.4 µM, the IC50 (P. aeruginosa PA01; [6]) was 55.5 µM and the IC50 (P. aeruginosa PA14; [7]) was 6.74 µM. For the same compound, the IC50 (P. aeruginosa PA14; [8]) was 6.7 µM, the IC50 (P. aeruginosa PA14; [9]) was 6.98 µM and the IC50 (P. aeruginosa PA14; [10]) was 5.86 µM. For the same compound, the IC50 (P. aeruginosa PA14; [11]) was 7.39 µM and the “inhibitory activity against P. aeruginosa, in words (SAR)” value [1] was “an order of magnitude less potency”.

For CCCCCC[C@H](CCCCC[C@@H](O)C(N)=O)OC(=O)[C@@H]1CC=CN1C(=O)c1c(O)cccc1OC [compound 15, (7R,13R)-14-amino-13-hydroxy-14-oxotetradecan-7-yl (S)-1-(2-hydroxy-6-methoxybenzoyl)-2,3-dihydro-1H-pyrrole-2-carboxylate], the “inhibitory activity against P. aeruginosa, in words (SAR)” value [1] was “not tolerated”.

With CCCCCC[C@H](CCCCC[C@@H](O)C(N)=O)OC(=O)[C@@H]1CC=CN1C(=O)c1ccc(O)cc1 [compound 13, (1R,7R)-1-carbamoyl-1-hydroxytridecan-7-yl (2S)-1-(4-hydroxybenzoyl)-2,3-dihydro-1H-pyrrole-2-carboxylate] the “inhibitory activity against P. aeruginosa, in words (SAR)” value [1] was “largely unforgiving”.

With CCCCCC[C@@H](O)CCCCC[C@@H](O)C(N)=O [compound 4, (2R,8R)-2,8-dihydroxytetradecanamide] the IC50 [1] was greater than 250 µM.

For C#CCNC(=O)[C@H](O)CCCCC[C@@H](CCCCCC)OC(=O)[C@@H]1CC=CN1C(=O)c1ccccc1O [(−)-S4, (7R,13R)-13-hydroxy-14-oxo-14-(prop-2-yn-1-ylamino)tetradecan-7-yl (S)-1-(2-hydroxybenzoyl)-2,3-dihydro-1H-pyrrole-2-carboxylate], the “activity relative to the natural product” value (P. aeruginosa PA14) was “three-fold less active” and the IC50 (P. aeruginosa PA14; preliminary screening for probe design, read-out: IC50 in PA14) was 0.218 µM.

With CCCCCC[C@H](CCCCC[C@@H](O)C(N)=O)OC(=O)[C@@H]1CC=CN1C(=O)c1cccc(O)c1 [compound 12, (7R,13R)-14-amino-13-hydroxy-14-oxotetradecan-7-yl (S)-1-(3-hydroxybenzoyl)-2,3-dihydro-1H-pyrrole-2-carboxylate] the “inhibitory activity against P. aeruginosa, in words (SAR)” value [1] was “largely unforgiving”.

For CCCCCC[C@H](CCCCC[C@@H](O)C(N)=O)OC(=O)[C@@H]1CC[C@@H]2Oc3ccccc3C(=O)N21 (single isomer, unassigned) [2a], the “inhibitory activity against P. aeruginosa, in words (SAR)” value [1] was “no biological activity”.

For CCCCCC[C@H](CCCCC[C@@H](O)C(N)=O)OC(=O)[C@@H]1CC[C@H]2Oc3ccccc3C(=O)N21 (single isomer, unassigned) [2b], the “inhibitory activity against P. aeruginosa, in words (SAR)” value [1] was “no biological activity”.

In the case of C#CCCC1(CCNC(=O)[C@H](O)CCCCC[C@@H](CCCCCC)OC(=O)[C@@H]2CC=CN2C(=O)c2ccccc2O)N=N1 [(−)-2, (7R,13R)-14-((2-(3-(but-3-yn-1-yl)-3H-diazirin-3-yl)ethyl)amino)-13-hydroxy-14-oxotetradecan-7-yl (S)-1-(2-hydroxybenzoyl)-2,3-dihydro-1H-pyrrole-2-carboxylate], the IC50 (P. aeruginosa PA14; read-out: IC50 in PA14) is reported as 1.7 µM and the “less active than promysalin” value [1] is reported as roughly 10 ×.
